{"source": "paper PMC8589421", "about": "“Impact of Type II LRRK2 inhibitors on signaling and mitophagy” (Biochemical Journal, 2021)", "assay_type_in_all_cases": "cell-based, mouse", "key": {"[1]": {"system": "phosphorylation of Rab12 (Ser105)", "assay": "Rab12 phospho-immunoblot in wild-type MEFs", "experimental": "Wild-type and homozygous LRRK2 [R1441C] (Jax, stock number: 009346), LRRK2[G2019S] Taconic, (model 13940) and LRRK2 [A2016T] (Jax, stock number: 021828)[7] knock-in MEF cells were isolated from littermate-matched mouse embryos on a C57BL/6J background at day E12.5 as described previously. MEFs were grown in Dulbecco's modified Eagle medium (DMEM GIBCO, #11960-085) containing 10% (by vol) fetal bovine serum (FBS), 2 mM L-glutamine, 100 U/ml penicillin, and […] streptomycin supplemented with non-essential amino acids and 1 mM sodium pyruvate. Human embryonic kidney 293 (HEK293) (#ATCC CRL-1573) and HeLa (#ATCC CCL-2) cells were purchased from American Tissue Culture Collection (ATCC) and cultured in DMEM containing 10% (by vol) FBS, 2 mM L-glutamine, 100 U/ml penicillin, and […] streptomycin. All cells were grown at 37°C, 5% (by vol) CO2 in a humidified atmosphere and regularly tested for mycoplasma contamination.\nInhibitors were dissolved in dimethyl sulfoxide (DMSO) (Sigma, #D2650). The inhibitors were diluted 1000× into cell medium. The equivalent volume of DMSO was added to the minus inhibitor controls. Experiments were performed in six-well plates, 10 cm dishes or 15 cm dishes depending on the amount of cell extract required.\nCells were lysed in an ice-cold lysis buffer containing 50 mM Tris–HCl, pH 7.4, 1% (by vol) Triton X-100, 10% (by vol) glycerol, 150 mM NaCl, 1 mM sodium orthovanadate, 50 mM NaF, 10 mM 2-glycerophosphate, 5 mM sodium pyrophosphate, 1 µg/ml microcystin-LR, and cOmplete EDTA-free protease inhibitor cocktail (Roche, #11836170001). Lysates were incubated on ice for 30 min and clarified by centrifugation at 20 800×g at 4°C for 20 min. Supernatants were quantified by Bradford assay (Bio-Rad Protein Assay Dye Reagent Concentrate #5000006) and samples prepared in 1× lithium dodecyl sulfate sample buffer final concentration (NuPage LDS Sample buffer 4× Invitrogen, #NP0008). When not deployed immediately, lysates were snap-frozen in liquid nitrogen and stored at −80°C until use.\nCell extracts were mixed with a quarter of a volume of NuPage LDS Sample buffer 4× Invitrogen and heated at 95°C for 5 min. […] At the end of electrophoresis, proteins were electrophoretically transferred onto the nitrocellulose membrane (GE Healthcare, Amersham Protran Supported 0.45 µm NC) at 100 V for 90 min on ice in the transfer buffer (48 mM Tris–HCl and 39 mM glycine supplemented with 20% methanol). Transferred membrane was blocked with 5% (w/v) skim milk powder dissolved in TBS-T [20 mM Tris–HCl, pH 7.5, 150 mM NaCl and 0.1% (v/v) Tween 20] at room temperature for 1 h. […]"}, "[2]": {"system": "basal mitophagy, wild type MEFs", "assay": "mito-QC basal mitophagy in wild-type primary MEFs", "settings": "24 h, 30–300 nM GZD-824, GSK3357679A 100 nM positive control", "experimental": "(§1) To assess mitophagy, wild type, G2019S knock in, and LRRK2 knock out primary mouse embryonic fibroblasts (MEFs) were derived, from time-mated pregnant females at E12.5 as previously described. Briefly, cells were plated on glass coverslips and incubated with DMEM (Gibco, 11960-044) supplemented with 10% FBS, 2 mM L-Glutamine (Gibco, 2503-081), 1% non-essential amino acids (Gibco, 11140-035), 1% Antibiotics (Penicillin/Streptomycin 100 U/ml penicillin and 100 µg/ml streptomycin; Gibco), and 150 µM β-Mercaptoethanol (Gibco, 21985-023) at 37°C under a humidified 5% CO2 atmosphere. […] GSK3357679A 100 nM (Ding et al., in prep) was used as a positive control. At the end of the treatment, MEFs were briefly washed twice in DPBS (Gibco, 14190-094), and fixed in 3.7% Paraformaldehyde pH 7.00 (Sigma, P6148), 200 mM HEPES, for 20 min. Cells were then washed two times with DMEM, 10 mM HEPES, and then incubated for 10 min with DMEM, 10 mM HEPES. […] Images were acquired using a Nikon Eclipse Ti-S fluorescence microscope with a 63× objective. Images were analyzed using the mito-QC counter as previously described. Experiments were performed in 3–4 independent experiments and data was analyzed with a one-way ANOVA followed by a Dunnett's multiple comparison test using the GraphPad Prism software (version 8.4.3 (686))."}, "[3]": {"system": "basal mitophagy, LRRK2[G2019S] MEFs", "assay": "mito-QC basal mitophagy in LRRK2[G2019S] knock-in primary MEFs", "settings": "24 h, 30–300 nM GZD-824, GSK3357679A 100 nM positive control", "experimental": "as §1"}}}
{"smiles": "Cc1ccc(C(=O)Nc2ccc(CN3CCN(C)CC3)c(C(F)(F)F)c2)cc1C#Cc1cnc2[nH]ncc2c1", "note": "[GZD-824]", "values": [{"measurement": "Rab12 phosphorylation level after treatment", "setting": "[1]; 1 μM, 2 h", "value": "almost background levels"}, {"measurement": "Rab12 phosphorylation over 24 h time course", "setting": "[1]; 1 μM, 24 h", "value": "remained suppressed"}, {"measurement": "time to 50% reduction of Rab12 phosphorylation", "setting": "[1]; 1 μM, Figure 2C", "value": "~10", "unit": "min"}, {"measurement": "IC50", "setting": "[1]; Mus musculus, 2 h, Figure 2A, read-out: IC50 inhibition of Rab12 phosphorylation", "value": "~300", "unit": "nM"}, {"measurement": "stimulation of basal mitophagy", "setting": "[2]", "value": "~2", "unit": "fold"}, {"measurement": "stimulation of basal mitophagy", "setting": "[3]", "value": "~2", "unit": "fold"}]}
